The record followed here is patent US10407488B2, “Therapy for treatment or prevention of conditions associated with bleeding or hypocoagulation” (THE REGENTS OF THE UNIVERSITY OF CALIFORNIA, priority 2013, dated 2019).

The subject of assay [1] is thrombin generation in murine Balb/c plasma with rhAPC. Briefly: Thrombin generation in murine Balb/c plasma in the presence of rhAPC. The format is biochemical, mouse. On the procedure: BU titer values for FVIII antibodies added to FVIII-deficient plasma were determined using a modified Nijmegen Bethesda assay (Barrow and Lollar; JTH 2006, 4:2223-2229). Briefly, antibody was serially diluted in HBS with 0.05% Tween 80 and mixed 1:1 with pooled normal plasma that was supplemented with 100 mM Imidazole, pH 7.0. Samples were incubated at 37° C. for 2 hours then assayed by aPTT with APTT XL reagent (Pacific Hemostasis). A standard curve was derived from a serial dilution of normal plasma into FVIII deficient plasma that was also mixed 1:1 with HBST and incubated at 37° C. for 2 hours. Percent FVIII activity was plotted versus mg/ml of antibody and residual activity of 50% was defined as 1 BU/ml. In addition, endogenous thrombin potential (ETP) assays were performed as described (3). Briefly FVa mutants or saline were added to human or murine plasma (George King Bio-Medical; mouse source, 50% v/v) supplemented with […] corn trypsin inhibitor (Haematologic Technologies), 10 mM CaCl2, 10 μM phospholipid vesicles (80% phosphatidylcholine, 20% phosphatidylserine, prepared as described (6), 0.2 pM soluble tissue factor (Innovin®, Dade Behring), and 0.4 mM Z-Gly-Gly-Arg-AMC (thrombin substrate, Bachem) in HBS. After mixing, 100 μL was transferred to a FluoroNunc microtiter plate at 37° C. to monitor fluorescence (excitation at 360 nm/emission at 460 nm; Gemini EM fluorescent plate reader (Molecular Devices)). Fluorescence time course data were converted to nM thrombin as described (7). ETP, defined as the area under the curve, was determined using Prism 5.04 (Graphpad).
APC-mediated inactivation of FVa was analyzed in ETP assays and aPTT clotting assays. FVa mutants were incubated with equal volumes of either recombinant human APC (Xigris®) or buffer in human and murine Balb/c plasma.

The test system of assay [2] is FVIII-deficient mice. Briefly: Tail clip bleeding assay in FVIII-deficient mice. The following applies: 20 minutes. Format: in vivo, mouse. Here is the method: Mice were anesthetized with Isoflurane 3%, placed on temperature controlled heating pads (37° C.), and the distal portion of the tail was cut at 1.5 mm diameter after which the tail was immersed in a predefined volume of 37° C. saline (0.9% NaCl) for 20 minutes. To study effects on bleeding and clot stability, tubes were changed after 10 minutes to collect blood for the first and second 10 minutes separately. Blood loss was determined by the hemoglobin concentration in the saline solution after red cell lysis with 2% acetic acid and measured by absorbance at 490 nm. Using a hemoglobin standard derived from defined blood volumes, blood loss was calculated assuming a hematocrit of 46% and expressed in μL/g body weight. Groups of Balb/c mice were injected intravenously (tail vein) with equal volumes (200 μL) of ^superFVa or saline 2 minutes prior to intravenous injection of rhAPC (Xigris®). Immediately after APC injection tail cut was performed. All agents were diluted in sterile sodium chloride 0.9% for injection (Hospira Inc).
Mice were anesthetized, placed on temperature controlled heating pads (37° C.), and the distal portion of the tail was cut at 1.5 mm diameter after which the tail was immersed in a predefined volume of 37° C. saline (0.9% NaCl) for 20 minutes. Blood loss was determined by the hemoglobin concentration in the saline solution after red cell lysis with 2% acetic acid and measured by absorbance at 405 nm. Using a hemoglobin standard derived from defined blood volumes, blood loss was calculated assuming a hematocrit of 46% and expressed in μL/g body weight. Groups of FVIII-deficient mice were injected intravenously (retro-orbital) within 2 minutes prior to tail cut with equal volumes ([…]) of sterile saline for injection (0.9%, Hospira Inc.), rhFVIII 200 units/kg FVIII (Xyntha®, Pfizer, NY, N.Y., USA) ^superFVa, rhFVIIa (NovoSeven®, NovoNordisk, Bagsvaerd, Denmark) or a combination of ^superFVa and rhFVIIa. All agents were diluted in sterile sodium chloride 0.9% for injection (Hospira Inc). […]

Take “^superFVa: engineered APC-resistant FVa variant (SEQ ID NO:4): R306Q, R506Q, R679Q, Cys609-Cys1691 disulfide, S2183A, B-domain deleted”: in assay [1] (ETP maximally suppressed by APC), the ETP restored is on record as 90-100%. Also, the “effect on thrombin generation suppressed by APC” value in assay [1] (concentrations where ^superFVa restores) is recorded as “fully restored thrombin generation”. For the same substance, the mean blood loss came to 25.9 µL/g in assay [2] (^superFVa 10 U/kg iv), 9.7 µL/g in assay [2] (^superFVa 40 U/kg iv) and 2.5 µL/g in assay [2] (^superFVa 200 U/kg iv).
